The record followed here is a melting point compilation (Tetko et al.; mined from patent text by program, amines drawn as free bases though some values may be those of a salt).

SMILES strings stand for the structures.

`COc1cc2cc(C(=O)OCc3ccccc3)n(CC(=O)OC(C)(C)C)c2cn1` gave a melting point of 110 °C.
`CN1CCC(c2c[nH]c3ccc(NC(=O)c4ccccc4)nc23)CC1`: the melting point is 111 to 114 °C.
In turn, `O=C(N[C@H](Cc1ccc(C(F)(F)F)cc1)[C@@H](O)c1ccc(F)c(F)c1)c1ccc(F)c2ccccc12` (racemic) gave a melting point of 197 to 198 °C.
As for `COC(=O)C(CO)NC(=O)c1cc2cc(Cl)ccc2[nH]1` (stereo unspecified), the figure is 153 to 155 °C; as for `CCOC(=O)CN(C(=O)N1CCN(c2cc(C)cc(C)c2)CC1)c1cc(C(C)O)c(C)nc1OC` (stereo unspecified), 68 to 70 °C.
As for `Cc1nc2sccn2c(=O)c1O`, the figure is 225 to 227 °C; as for `O=C1c2ccc(Cl)cc2C(=O)N1CCN1CCC(c2noc3cc(F)ccc23)CC1`, 170 to 171 °C; as for `O=C(NC(=O)c1cccs1)c1cncc([N+](=O)[O-])c1`, 187 °C.
As to `CC(C)(C=O)C(=O)C(C)(Cc1ccc(C(C)(C)C)cc1)C(=O)O` (stereo unspecified), the melting point was in the range of 116 to 118 °C.
As to `CCOC(=O)c1ccc(NCc2cc(Br)ccc2OCc2ccccc2)c(OC)c1`, the melting point is 78 °C.
The value for `Cc1ccc(S(=O)(=O)c2nc(Cl)c([N+](=O)[O-])s2)cc1` was 153 to 154 °C; that for `Cc1cc(OCc2cnc(-c3ccc(OC(F)(F)F)cc3)nc2C(F)(F)F)ccc1OC(C)(C)C(=O)O` was 154 °C; that for `Cn1nnnc1CC(=O)c1cc(F)c(Cl)cc1N` was 180 to 184 °C.
The molecule `CC1(C)Cc2cc(C3=NNC(=O)C4CC34)ccc2NC1=O` (stereo unspecified) returned a melting point of 275 to 277 °C.
As for `O=C(O)C(Cc1ccccc1)Oc1ccc(-c2ccc(-c3c(Cc4ccc(O)c(O)c4)sc4ccccc34)cc2)cc1` (stereo unspecified), the figure is 108 to 110 °C; as for `COCC(=O)C(=NNc1ccccc1F)C(=O)OC`, 121 to 126 °C; as for `CC(C)(C)CN1c2ccccc2C(C)(C)C12C=Nc1c(ccc3ccccc13)O2` (stereo unspecified), 167 to 170 °C.
`Cc1nc2cccc3n(CCCNS(=O)(=O)CC(F)(F)F)c(=O)c1n23` registered a melting point of 157 to 158 °C.
The value for `Cc1ccc(S(=O)(=O)CNc2ccc(C(F)(F)F)cc2)cc1` was 135 °C; that for `CCC(=O)NCCOc1ccccc1` was 61.5 to 64 °C; that for `CCOC(=O)C(Cl)(Cl)CCCCCCCCCCCCS(=O)(=O)c1ccccc1` was 69 to 71 °C.
The value for `CCCNC(=O)c1nnc(NCc2cc(Br)ccc2OCc2ccccc2)s1` was 154 °C; that for `c1ccc2c(c1)c1ccccc1n2-c1ccc2c(c1)Oc1ccc(-n3c4ccccc4c4ccccc43)cc1O2` was 348 °C.
The value for `CCc1c(C(=O)c2cccc(Cl)c2Cl)c2cccc(Br)c2n1CCCN(C)S(C)(=O)=O` was 111 °C; that for `CCOC(=O)CCc1cn(-c2ccccc2)nc1OCc1ccc(OCc2nc(-c3ccco3)oc2C)c(OC)c1` was 97 to 98 °C; that for `Cc1nc2n(c(=O)c1CCCl)CCCN2Cc1ccccc1` was 114 °C.
Molecule `COC(=O)C(C(=O)N1CCOCC1)C(c1ccccc1)c1cc2cc(Br)ccc2nc1OC` (stereo unspecified) returned a melting point of 206 to 208 °C.
`CCOC(=O)c1cn2c3c(cc(N(C)C)cc3c1=O)CCC2C` (stereo unspecified) came in with a melting point of 219 to 222 °C.
Consider `COC(C)(OC)C(=O)CCCCCCOc1ccc(-c2ccccc2)cc1`, for which the melting point worked out at 48 °C.
`CCCCCCCCCC(=O)Nc1ccc(S(=O)(=O)Nc2nnc(CC(=O)OCC)s2)cc1` came in with a melting point of 89 to 90 °C.
Turning to `CC(=N)Nc1cccc(F)c1`, the melting point was in the range of 175 to 177 °C.
The molecule `COC(=O)[C@@H]1CC[C@@H]2CN1C(=O)N2OCc1ccccc1` returned a melting point of 86 °C.
The value for `CC(C)(C)OC(=O)CCc1ccc(Cc2nnn(C(C)(C)C)n2)cc1` was 54 to 55 °C.
As to `C#CCOc1ccc2c(c1)c(-c1ccc(C(C)C)cc1)nc(=O)n2Cc1cccc(NC(=O)CCl)c1`, the melting point fell in the range of 170 to 172 °C.
The value for `COc1ccc(-n2nc(C(C)CCO)cc2-c2ccc(Cl)cc2)cc1` (stereo unspecified) was 97.5 to 98.5 °C.
As to `O=C(NCCCCCNC(=O)c1ccc(OC(F)(F)F)cc1)c1ccc(OC(F)(F)F)cc1`, the melting point lay in the range of 154 to 155 °C.
On to `CC(C)CCCC(C)CC(=O)Oc1ccc(-c2ccc(OC(=O)CC(C)CCCC(C)C)cc2)cc1` (stereo unspecified), for which the melting point was 72 to 73 °C.
As for `CN1CCNC1=NC(c1ccccc1)c1ccccc1`, the figure is 226 to 228 °C; as for `Cc1nc(NC(=O)c2cnccn2)c(Br)c(C)c1Br`, 166 °C.
As for `N#Cc1ccc(C2NCCc3ccccc32)cc1` (racemic), the figure is 114 to 115 °C.
Molecule `CC(C)c1ccc(NC(=O)N2CCc3cc(S(=O)(=O)N4CCN(c5cccc(Cl)c5)CC4)ccc32)cc1` displayed a melting point of 182 °C.
The value for `CCN(CC)c1cccc2nc3n(c12)CC(N)CCN3c1ccc(Cl)cc1Cl` (stereo unspecified) was 149 to 151 °C.
On to `COCCNC(=O)c1cc(F)cc(-c2cccc3c(F)c(Cc4cccc(C(F)(F)F)c4)sc23)c1`, for which the melting point fell in the range of 109 to 110 °C.
As for `COC(=O)C(Cc1ccc(OCCn2c(=O)oc3cc(C(O)c4ccccc4)ccc32)cc1)C(=O)OC` (stereo unspecified), the figure is 84 to 87 °C.
Take `CCOC(=O)c1ccc(OCc2nc(-c3ccccc3)oc2C)c(OC)c1`: the melting point is 103 to 104 °C.
Turning to `CCOc1ccc(C#N)c(F)c1F`, the melting point was 45 °C.
For the molecule `NC(=O)CNC(=O)c1cccc(-c2cccc3oc(Cc4cc(F)cc(Cl)c4)cc23)c1`, the melting point lay within 156 to 157 °C.
As for `COc1ccc(-c2c3cccc(C(F)(F)F)c3nn2C2CCC2)c(OC)c1`, the figure is 51 to 52 °C; as for `Cc1c(C)c(N2CCN(c3nc(-c4ccccc4)ns3)CC2)c(C)c2c1OC(C)(C)C2`, 204 to 205 °C; as for `COc1cc2c(cc1C)CCC2c1cnc[nH]1` (stereo unspecified), 68 to 70 °C.
As to `CCOC(=O)c1ccc(N2CCN(CC(=O)c3ccc(Cl)cc3)CC2)cc1`, the melting point lay within 150 to 152 °C.
`CCN1CCCC1=NC(=O)Nc1cccc(Cl)c1`: the melting point lay in the range of 122 to 124 °C.
As for `Nc1nc(-c2ccc(Cl)cc2C(=O)c2ccccc2)c(CN2C(=O)c3ccccc3C2=O)s1`, the figure is 253 to 255 °C; as for `CCCCc1nc(C2CCCCC2)n(Cc2ccc(-c3ccccc3-c3ncn[nH]3)cc2)n1`, 158 to 160 °C.
`CCOC(=O)c1ncc2[nH]c3ccc(C4CC=CCC4)cc3c2c1C` (stereo unspecified) displayed a melting point of 200 to 201 °C.
In turn, `N=C(N)Nc1nc(Cl)cc(Cl)n1` showed a melting point greater than 360 °C.
As for `N=C(N)c1ccc(C(=O)N2CCCCC2C(=O)N2CCC(OCC(=O)O)CC2)cc1` (stereo unspecified), the figure is 233 to 234 °C; as for `COc1cccc2c1OC1C3CCC4(C(=O)N(CC5CC5)CCC214)C(C(C)(O)C(C)(C)C)C3` (stereo unspecified), 205 to 206 °C.
As for `Cc1cc(C)c(C2C(=O)N3CCOCCN3C2=O)c(C)c1`, the figure is 248 to 250 °C.
As for `O=C1C(=O)c2ccccc2C2=C1SCC1(CCN(c3cc(Cl)ncn3)CC1)O2`, the figure is 172 to 174 °C.
`O=c1[nH]c(=O)n(C2CC(OCc3ccc(F)cc3)C(CO)O2)cc1F` (stereo unspecified): the melting point fell in the range of 130 to 131 °C.
